According to PMC8177068, “Secondary (iso)BAs cooperate with endogenous ligands to activate FXR under physiological and pathological conditions” (Biochimica et biophysica acta. Molecular basis of disease, 2021):
Values belong to the compound of their own block, whether it stands above or below them.

Key:
[1] = test system: intestinal Fgf15; test: BA-enriched diet in mice: intestinal FXR target gene expression; assay type: in vivo, mouse; conditions: C57BL/6 J mice, 0.5% (w/w) chow diet
Description: (§1) RNA was extracted from cells or snap-frozen tissue samples (approximately 50 mg) using Trizol according to the manufacturer’s instructions and as described previously in detail. Liver samples were homogenized before extraction in a MagNA Lyser at 6500 rpm for 2 × 20 s intervals. Concentration and quality (absorbance 260/280 & […] ratios) of RNA was measured on a NanoDrop™ 2000 spectrophotometer. Isolated RNA was reverse-transcribed by using the SuperScript II cDNA synthesis enzyme according to the manufacturer’s instructions. Primers used for RT-qPCR were designed using the open-source program Primer3. Primers were designed to span exon-intron boundaries with an amplicon size of less than 150 bp. Relative changes were calculated using a standard curve and 36b4 as the reference genes.
Fig. 6.

[2] = test system: hepatic Cyp7a1; test: BA-enriched diet in mice: hepatic BA synthesis gene expression; assay type: in vivo, mouse; conditions: for Cyp7a1 levels in the liver: C57BL/6 J mice, 0.5% (w/w) chow diet
Description: as §1
(§2) All animals were housed with a 12-h light-dark cycle in humidity and temperature-controlled conditions and permitted ad libitum consumption of water and a standard mouse diet (Altromin 1324, Lage, Germany). All the experiments were approved by the European Directive 2010/63/EU and approved by the Austrian Federal Ministry of Education, Science and Research (Vienna, Austria; BMWFW-66.010/0124-V/3b/2018, BMWFW-66.010/0129-WF/V/3b/2016, and the Institutional Animal Care and Use Committees at Emory University and were in conformity with the Austrian/US animal law. The Ostα^−/−, Asbt^−/−, Ostα-Asbt DKO (double knockout) and Fxr^−/−mice were generated as previously described. Experiments were performed in 8–12 weeks-old mice. Mice were fed a chow diet (Altromin 1324, Lage, Germany); for BA supplementation experiments, male mice were fed 0.5% (w/w) diet of the indicated BA for the indicated time. CBDL was performed as described previously. Mice were euthanized by decapitation and tissues including liver and intestine were immediately dissected, weighed and frozen in liquid nitrogen for subsequent molecular analysis or preserved for histological analysis.
Fig. 6. Regulation of FXR target genes in vivo after treatment with unconjugated and conjugated bile acids.
Fig. 7.

[3] = test system: FXR target genes (Ostb, Kng1); test: FXR target gene mRNA/pre-mRNA expression in HepG2 cells (qRT-PCR); assay type: cell-based, human; conditions: 6 h
Description: as §1
Fig. 1.

[4] = molecular target: T1, FXR ligand binding domain (NucleoBAS) (Homo sapiens, UniProt Q96RI1); test: Confocal FRET bile acid sensor (NucleoBAS) in U2OS cells; assay type: cell-based; conditions: NTCP-NucleoBAS cells in CFBS
T1 construct: nuclear localisation (sensor targeted to the nucleus; signal not described); expressed in transfected cells; host or cells: U2OS cells stably expressing NucleoBAS (PEI transfection, colony selection); some experiments with co-expressed NTCP-mKate2
T1 sequence (Q96RI1 262-486 limits assumed): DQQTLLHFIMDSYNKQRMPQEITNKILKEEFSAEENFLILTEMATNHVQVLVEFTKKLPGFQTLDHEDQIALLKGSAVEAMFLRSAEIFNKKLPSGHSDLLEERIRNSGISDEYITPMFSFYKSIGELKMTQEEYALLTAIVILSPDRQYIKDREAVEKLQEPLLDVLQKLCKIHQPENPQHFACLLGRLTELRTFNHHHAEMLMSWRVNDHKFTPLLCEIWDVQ
Excerpt: Fig. 3.
Fig. 4. […] Error bars represent the SEM.
(§3) (1 picture or pasted object on this page, not shown here)

[5] = test system: Bsep; test: Hepatic Bsep pre-mRNA and mRNA in animals treated with GSK2324; assay type: in vivo; conditions: animals treated with GSK2324, liver
Description: Supplementary Figure 2. (A) Hepatic expression of bile acid transport (Bsep) and BA-synthesis gene (Cyp7a1) pre-mRNA and mRNA after treatment with either vehicle or the synthetic FXR agonist GSK2324 for 30 minutes (n = 7-8), 1 hour (n = 8), or 2 hours (n = 7-8) before sacrifice; values represent the mean ± SEM. *p<0.05, #p<0.01. Effect of the synthetic FXR ligand (GW4064) and isoBAs (isoCDCA, isoDCA, isoUDCA) on mRNA (B) and pre-mRNA (C) levels of Ostb, Kng1, Shp in HepG2 cells treated over time; n=3. Values represent the mean ± SEM.
as §3

[6] = test system: human ASBT; set-up: method as in PMID 24328955; conditions: cited from earlier work
[7] = Metabolism of isoBAs in HepG2 cells (LC-MS); assay type: in vitro ADME, human; conditions: 4 h
Description: The protocol has been published in detail previously. Briefly, internal standards were added to cells in 12-well plates and cells were lysed in methanol. The debris was pelleted, the supernatant dried and dissolved in running buffer. BAs were separated by HPLC using a C18 reversed phase or pentafluorophenyl column prior to quantification by mass spectrometry.
Having established suitable analytical methods, we focused on the metabolism of isoBAs and their 3-alpha-epimers in vitro, using conditions similar to our cell-based FXR assays. […] This may indicate that the presence of the 12-hydroxy group prevents further metabolism into 3α-BAs. It was also observed that a very small amount of 3α-OH BAs were converted to 3-keto intermediates (Fig. 2B, C).
Fig. 2. IsoBAs are metabolized into (3-keto/oxo) derivatives and are partially re-epimerized into 3-alpha hydroxy BAs. HepG2 cells were incubated with (A) isoBAs or (B) their 3-alpha-epimers for 4 h. BAs were measured on C-18 column by LC/MS. Upper panel BAs and isoBAs; lower panel keto/oxo derivatives after incubation. Chromatograms of isoBA-standards are shown in Supplementary Fig. 3A. (C) Merged chromatograms of (A) & (B). […] (*) conversion of isoBAs into 3-alpha hydroxy BAs. (m/z) mass divided by charge number.

[8] = test system: FXR target genes; test: Single dose gavage of (iso)BAs followed by GW4064 in mice, FXR target genes; assay type: in vivo, mouse; conditions: 60 mg/kg BW followed by GW4064 30 mg/kg BW, 6 h
Excerpt: as §2
Fig. 5. […] Genes were analyzed 6 h after gavage; n = 3–4, values represent the mean ± SEM. *p < 0.05; #p < 0.01.
Supplementary Figure 5. […]
Genes were analyzed 6 hours after gavage; n=3-4, values […]

[9] = set-up: method as in PMID 9126801, PMID 11352980; conditions: pilot studies; cited from earlier work

Structure (SMILES): C[C@H](CCC(=O)O)[C@H]1CC[C@H]2[C@@H]3[C@H](O)C[C@@H]4C[C@H](O)CC[C@]4(C)[C@H]3C[C@H](O)[C@]12C [CA, cholic acid]
Fgf15 and Ibabp expression in the intestine [1]: increased
Cyp7a1 levels in the liver [2]: repressed
induction of Ostβ and Kng1 pre-mRNAs [3]: not

Structure (SMILES): C[C@H](CCC(=O)O)[C@H]1CC[C@H]2[C@@H]3CC[C@@H]4C[C@H](O)CC[C@]4(C)[C@H]3C[C@H](O)[C@]12C [DCA, deoxycholic acid, reference compound]
induction of Ostβ and Kng1 pre-mRNAs [3]: robustly induced

Structure (SMILES): CC(CCC(=O)NCC(=O)O)C1CCC2C3C(O)CC4CC(O)CCC4(C)C3CCC12C (centres unmarked) [GCDCA, glycochenodeoxycholic acid, reference compound]
change in FRET ([4]; 10 μM GCDCA): markedly increased FRET

Structure (SMILES): CC(C)c1onc(-c2c(Cl)cccc2Cl)c1COc1ccc(-c2ccc3nc(C(=O)O)ccc3c2)cc1 [GSK2324]
Bsep pre-mRNA induction over the mature Bsep mRNA [5]: ~ 20 fold

Structure (SMILES): C[C@H](CCC(=O)O)[C@H]1CC[C@H]2[C@@H]3CC[C@@H]4C[C@H](O)CC[C@]4(C)[C@H]3CC[C@]12C [LCA, lithocholic acid, reference compound]
induction of Ostβ and Kng1 pre-mRNAs [3]: not

Structure (SMILES): C[C@H](CCC(=O)NCCS(=O)(=O)O)[C@H]1CC[C@H]2[C@@H]3[C@@H](O)C[C@@H]4C[C@H](O)CC[C@]4(C)[C@H]3CC[C@]12C [TUDCA, tauroursodeoxycholic]
expression of pre-mRNA over mRNA as compared to CA and TCA [1]: more strongly enhanced

Structure (SMILES): C[C@H](CCC(=O)O)[C@H]1CC[C@H]2[C@@H]3[C@@H](O)C[C@@H]4C[C@H](O)CC[C@]4(C)[C@H]3CC[C@]12C [UDCA, ursodeoxycholic acid]
affinity for human ASBT compared to native BAs [6]: identical binding affinities
Cyp7a1 levels in the liver [2]: repressed
effect on liver Cyp7a1 mRNA expression ([2]; CBDL mice, 0.5% (w/w) diet 7 days): inhibited
repression of Cyp7a1 mRNA levels ([2]; CBDL-Fxr KO mice): not
repression of Cyp7a1 mRNA levels ([2]; CBDL-WT mice): repress

re-epimerization (conversion) into the 3α-stereoisomer [7]: did not observe re-epimerization
Structure (SMILES): C[C@H](CCC(=O)O)[C@H]1CC[C@H]2[C@@H]3[C@H](O)C[C@@H]4C[C@@H](O)CC[C@]4(C)[C@H]3C[C@H](O)[C@]12C [isoCA]
induction of Ostβ and Kng1 pre-mRNAs [3]: not

re-epimerization (conversion) into the 3α-stereoisomer [7]: observed
Structure (SMILES): C[C@H](CCC(=O)O)[C@H]1CC[C@H]2[C@@H]3[C@H](O)C[C@@H]4C[C@@H](O)CC[C@]4(C)[C@H]3CC[C@]12C [isoCDCA]
induction of Ostβ and Kng1 mRNA [3]: significant induction
induction of Ostβ and Kng1 pre-mRNAs [3]: robustly induced

change in FRET signal induced by GCDCA ([4]; 100 μM isoBA at t = 240 s after 10 μM GCDCA): reduced the FRET signal
re-epimerization (conversion) into the 3α-stereoisomer [7]: did not observe re-epimerization
Structure (SMILES): C[C@H](CCC(=O)O)[C@H]1CC[C@H]2[C@@H]3CC[C@@H]4C[C@@H](O)CC[C@]4(C)[C@H]3C[C@H](O)[C@]12C [isoDCA, (5β, 3β, 12α) -dihydroxy-cholan-24-oic acid]
induction of Ostβ and Kng1 mRNA [3]: barely induced
induction of Ostβ and Kng1 pre-mRNAs [3]: robustly induced

Structure (SMILES): C[C@H](CCC(=O)O)[C@H]1CC[C@H]2[C@@H]3CC[C@@H]4C[C@@H](O)CC[C@]4(C)[C@H]3CC[C@]12C [isoLCA]
induction of Ostβ and Kng1 pre-mRNAs [3]: not

re-epimerization (conversion) into the 3α-stereoisomer [7]: observed
Structure (SMILES): C[C@H](CCC(=O)O)[C@H]1CC[C@H]2[C@@H]3[C@@H](O)C[C@@H]4C[C@@H](O)CC[C@]4(C)[C@H]3CC[C@]12C [isoUDCA]
repression of Cyp7a1 in the liver compared to UDCA [8]: even better
affinity for human ASBT compared to native BAs [6]: identical binding affinities
tolerability [9]: well tolerated without any side effects
induction of Ostβ and Kng1 mRNA [3]: barely induced
induction of Ostβ and Kng1 pre-mRNAs [3]: not
